Where two headings read alike, the source gives them in different places.
How the values were obtained:
[1] = biological target: PI3Kα (His-PIK3CA/PIK3R1, p110 alpha/p85 alpha) (Homo sapiens (Human), UniProt P42336); experiment: PI3Kα biochemical assay (HTRF/FRET probe); format: binding
Experimental: Phosphoinositide 3-kinase α (PI3Kα) Biochemical Assay: A solution was prepared containing 0.2 nM Anti-HIS-Terbium (Cisbio, 64CUSTAZU), 3.7 nM designed-probe and 1.0 nM His-PIK3CA/PIK3R1 (p110 alpha/p85 alpha) in FRET Buffer (20 mM HEPES, 10 mM MgCl2, 0.015% Brij-35, 4 mM DTT, 0.05 mg/mL BSA).

PI3Kβ = PI3Kβ (Homo sapiens (Human), UniProt P42338); experiment: PI3Kβ biochemical assay (Reaction Biology ADP-Glo)
Experimental: Phosphoinositide 3-kinase R (PI3KP) Biochemical Assay using Reaction Biology's ADP-Glo Assay Platform:
Step 1: Lipid kinases: Reaction Biology Corporation (RBC) currently offers lipid kinases in ADP-Glo format
Step 2: Assay Description Assay principle: The kinase reactions utilize ATP and produce ADP as a byproduct. The ADP production is quantified by ADP-Glo luminescence detection. This is a 3-step reaction: First, the kinase reaction with lipid substrate is carried out in the presence of ATP, and the reaction is quenched and depleted remaining ATP with ADP-Glo™ reagent, and then finally ADP is converted to ATP which is measured using a luciferase/luciferin reaction.
Step 3: Assay Procedure: 1. Prepare kinase in freshly prepared Reaction Buffer, kinase without substrate is delivered to background wells; 2. Deliver substrate into the kinase solution and gently mix, deliver to assay wells; 3. Deliver compounds in 100% DMSO into the kinase reaction mixture by Acoustic technology (Echo550; nanoliter range), incubate for 20 min at room temperature; 4. Deliver ATP into the reaction mixture to initiate the reaction; 5. Incubate for 60 min at 30° C.; 6. Quench the reaction with ADP-Glo reagent and incubate for 40 min; 7. Add Detection Mixture and incubate for 30 min; 8. Measure luminescence.
Step 4: Data Analysis: The luminescence is converted into M ADP production based on ADP standard curves. The nonlinear regression to obtain the standard curve and IC50 values are performed using Graphpad Prism software.

[2] = biological target: PI3Kδ (His-PIK3CD/PIK3R1, p110 delta/p85 alpha) (Homo sapiens (Human), UniProt O00329); experiment: PI3Kδ biochemical assay (HTRF/FRET probe); format: binding
Experimental: Phosphoinositide 3-kinase (PI3K) Biochemical Assay: A solution was prepared containing 0.2 nM Anti-HIS-Terbium (Cisbio, 64CUSTAZU), 40 nM designed-probe and 1.0 nM His-PIK3CD/PIK3R1 (p110 delta/p85 alpha) in FRET Buffer (20 mM HEPES, 10 mM MgCl2, 0.015% Brij-35, 4 mM DTT, 0.05 mg/mL BSA).

ATM = ATM (Homo sapiens (Human), UniProt Q13315); experiment: ATM biochemical assay (Reaction Biology HTRF kinase assay, 10 μM ATP)
In short: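 HTRF kinase assay with N-terminal GST-tagged human p53 (aa2-393) substrate, 10 μM ATP, in 50 mM Hepes pH 7.5, 10 mM MnCl2, 1% DMSO. Enzyme preincubated with compound 30 min, reaction 2 h at room temperature. pS15 phosphorylation read by Eu-cryptate anti-p53-pS15/anti-GST-d2 HTRF (615/665 nm).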

DNA-PK = DNA-PK (Homo sapiens (Human), UniProt P78527); experiment: DNA-PK biochemical assay (Reaction Biology HotSpot kinase assay, 10 μM ATP)
In short: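 Radiometric 33P-ATP kinase reaction in 20 mM Hepes pH 7.5, 10 mM MgCl2, 1 mM EGTA, 2 mM DTT, 1% DMSO. Compound preincubated with kinase and substrate 20 min at room temperature, then reaction run 2 h at room temperature after ATP addition. Activity read by P81 filter binding.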

[3] = read-out: DNA-PK HotSpot 10 μM ATP IC50, class symbol

PI3Kδ (His-PIK3CD/PIK3R1, p110 delta/p85 alpha), sequence (O00329 whole entry, species assumed): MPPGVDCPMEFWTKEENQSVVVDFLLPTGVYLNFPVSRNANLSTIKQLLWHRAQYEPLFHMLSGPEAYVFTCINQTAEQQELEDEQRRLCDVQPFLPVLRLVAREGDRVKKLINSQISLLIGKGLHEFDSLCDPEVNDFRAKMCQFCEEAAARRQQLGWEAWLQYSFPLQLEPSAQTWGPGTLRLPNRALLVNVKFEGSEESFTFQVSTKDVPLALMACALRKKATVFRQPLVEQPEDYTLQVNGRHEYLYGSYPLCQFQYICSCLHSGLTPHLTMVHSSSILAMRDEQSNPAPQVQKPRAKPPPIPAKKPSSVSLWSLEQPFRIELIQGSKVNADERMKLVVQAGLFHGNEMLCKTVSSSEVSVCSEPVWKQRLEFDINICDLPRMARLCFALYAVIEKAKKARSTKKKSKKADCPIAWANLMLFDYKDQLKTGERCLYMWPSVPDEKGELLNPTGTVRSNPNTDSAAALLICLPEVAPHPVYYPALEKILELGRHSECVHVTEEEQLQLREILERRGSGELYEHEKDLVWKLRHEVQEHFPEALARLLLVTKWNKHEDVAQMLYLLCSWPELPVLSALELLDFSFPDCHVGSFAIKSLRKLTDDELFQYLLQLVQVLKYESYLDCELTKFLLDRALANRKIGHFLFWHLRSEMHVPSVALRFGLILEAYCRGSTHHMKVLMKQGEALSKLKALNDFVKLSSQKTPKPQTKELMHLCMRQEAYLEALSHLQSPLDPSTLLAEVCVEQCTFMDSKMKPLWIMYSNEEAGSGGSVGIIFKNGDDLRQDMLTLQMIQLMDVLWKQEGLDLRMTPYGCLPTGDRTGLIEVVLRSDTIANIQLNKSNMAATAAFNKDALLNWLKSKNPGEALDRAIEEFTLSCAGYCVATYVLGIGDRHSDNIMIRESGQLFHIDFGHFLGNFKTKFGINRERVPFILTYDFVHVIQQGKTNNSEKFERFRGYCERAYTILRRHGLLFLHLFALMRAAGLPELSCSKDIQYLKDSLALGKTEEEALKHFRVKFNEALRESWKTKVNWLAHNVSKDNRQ
PI3Kδ (His-PIK3CD/PIK3R1, p110 delta/p85 alpha), sequence (P27986 whole entry partner, species assumed): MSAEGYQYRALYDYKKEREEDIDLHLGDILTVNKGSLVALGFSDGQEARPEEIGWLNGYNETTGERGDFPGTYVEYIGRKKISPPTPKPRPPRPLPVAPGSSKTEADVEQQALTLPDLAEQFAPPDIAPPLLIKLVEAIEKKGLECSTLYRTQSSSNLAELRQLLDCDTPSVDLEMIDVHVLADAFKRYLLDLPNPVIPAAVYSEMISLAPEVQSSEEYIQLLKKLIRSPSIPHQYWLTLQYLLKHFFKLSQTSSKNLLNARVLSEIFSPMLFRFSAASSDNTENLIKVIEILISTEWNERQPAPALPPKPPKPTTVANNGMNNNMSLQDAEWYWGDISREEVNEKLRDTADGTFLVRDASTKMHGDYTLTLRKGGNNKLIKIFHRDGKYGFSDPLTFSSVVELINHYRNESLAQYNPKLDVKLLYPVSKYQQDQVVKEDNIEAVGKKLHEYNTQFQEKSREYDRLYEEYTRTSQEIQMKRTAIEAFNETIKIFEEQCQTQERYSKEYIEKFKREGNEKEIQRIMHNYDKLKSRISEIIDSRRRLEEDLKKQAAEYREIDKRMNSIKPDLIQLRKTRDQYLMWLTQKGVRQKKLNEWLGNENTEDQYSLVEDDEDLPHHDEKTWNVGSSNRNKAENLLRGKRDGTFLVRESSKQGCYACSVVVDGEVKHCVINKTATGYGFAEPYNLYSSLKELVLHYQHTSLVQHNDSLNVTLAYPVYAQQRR
PI3Kα (His-PIK3CA/PIK3R1, p110 alpha/p85 alpha), sequence (P42336 whole entry, species assumed): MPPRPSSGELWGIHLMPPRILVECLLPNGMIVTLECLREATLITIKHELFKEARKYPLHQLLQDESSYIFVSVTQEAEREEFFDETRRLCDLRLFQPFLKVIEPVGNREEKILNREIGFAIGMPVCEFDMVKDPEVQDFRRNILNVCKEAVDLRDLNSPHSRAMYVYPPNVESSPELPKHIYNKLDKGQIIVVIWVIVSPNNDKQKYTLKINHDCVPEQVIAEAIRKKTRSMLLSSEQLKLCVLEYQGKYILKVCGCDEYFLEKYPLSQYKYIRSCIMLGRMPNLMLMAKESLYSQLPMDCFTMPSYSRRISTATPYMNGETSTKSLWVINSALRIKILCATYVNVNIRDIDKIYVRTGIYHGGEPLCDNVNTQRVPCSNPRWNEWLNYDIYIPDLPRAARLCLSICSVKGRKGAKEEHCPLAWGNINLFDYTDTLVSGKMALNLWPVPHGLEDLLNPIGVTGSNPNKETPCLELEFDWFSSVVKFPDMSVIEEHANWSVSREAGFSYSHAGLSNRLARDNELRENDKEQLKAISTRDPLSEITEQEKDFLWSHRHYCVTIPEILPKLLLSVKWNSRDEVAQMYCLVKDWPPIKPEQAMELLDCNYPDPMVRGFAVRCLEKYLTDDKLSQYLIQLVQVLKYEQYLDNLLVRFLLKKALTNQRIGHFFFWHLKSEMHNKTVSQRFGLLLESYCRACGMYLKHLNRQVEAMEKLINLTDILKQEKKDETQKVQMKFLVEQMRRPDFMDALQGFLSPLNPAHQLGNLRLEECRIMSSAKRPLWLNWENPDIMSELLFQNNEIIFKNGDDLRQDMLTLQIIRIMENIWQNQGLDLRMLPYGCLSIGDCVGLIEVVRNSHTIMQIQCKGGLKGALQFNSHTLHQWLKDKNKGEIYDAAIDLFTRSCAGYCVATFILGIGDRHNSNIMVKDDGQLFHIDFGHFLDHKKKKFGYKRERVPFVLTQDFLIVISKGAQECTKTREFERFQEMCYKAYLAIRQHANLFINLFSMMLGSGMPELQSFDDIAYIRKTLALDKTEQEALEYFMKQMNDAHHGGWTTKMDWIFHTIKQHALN
PI3Kα (His-PIK3CA/PIK3R1, p110 alpha/p85 alpha), sequence (P27986 whole entry partner, species assumed): as the sequence (P27986 whole entry partner, species assumed) above
PI3Kβ, sequence (P42338 whole entry): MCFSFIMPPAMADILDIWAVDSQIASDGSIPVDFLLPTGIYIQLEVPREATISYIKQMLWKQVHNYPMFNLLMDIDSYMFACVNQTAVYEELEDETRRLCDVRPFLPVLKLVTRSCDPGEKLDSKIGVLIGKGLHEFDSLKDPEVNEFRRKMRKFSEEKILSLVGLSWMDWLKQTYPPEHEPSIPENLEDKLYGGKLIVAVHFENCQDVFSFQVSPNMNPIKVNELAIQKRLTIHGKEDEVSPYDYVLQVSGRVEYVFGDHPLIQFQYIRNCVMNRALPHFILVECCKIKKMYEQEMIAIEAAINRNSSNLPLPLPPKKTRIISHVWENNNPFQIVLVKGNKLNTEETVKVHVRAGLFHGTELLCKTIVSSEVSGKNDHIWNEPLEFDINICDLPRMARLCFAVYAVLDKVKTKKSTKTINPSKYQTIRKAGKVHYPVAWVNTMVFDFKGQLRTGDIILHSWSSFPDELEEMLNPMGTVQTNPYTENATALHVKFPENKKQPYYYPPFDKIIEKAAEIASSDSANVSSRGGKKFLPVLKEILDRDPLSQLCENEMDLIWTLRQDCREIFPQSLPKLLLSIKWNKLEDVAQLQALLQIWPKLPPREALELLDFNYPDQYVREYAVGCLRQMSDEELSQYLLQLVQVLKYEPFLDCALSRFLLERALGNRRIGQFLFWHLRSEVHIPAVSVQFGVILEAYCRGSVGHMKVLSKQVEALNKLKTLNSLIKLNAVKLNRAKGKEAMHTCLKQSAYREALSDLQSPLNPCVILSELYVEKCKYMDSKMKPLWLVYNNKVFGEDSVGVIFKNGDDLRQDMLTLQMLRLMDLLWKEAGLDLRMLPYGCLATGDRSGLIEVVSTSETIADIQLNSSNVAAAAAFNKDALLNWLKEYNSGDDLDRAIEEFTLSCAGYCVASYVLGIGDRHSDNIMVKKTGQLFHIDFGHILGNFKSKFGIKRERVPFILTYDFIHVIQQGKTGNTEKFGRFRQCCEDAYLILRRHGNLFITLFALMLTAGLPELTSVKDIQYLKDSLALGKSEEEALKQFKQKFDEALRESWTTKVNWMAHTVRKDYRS
PI3Kβ, sequence (P27986 whole entry partner): as the sequence (P27986 whole entry partner, species assumed) above

Row | SMILES | IC50 ([1]; class symbol) [nM] | IC50 ([1]; numeric value) [nM] | IC50 (PI3Kβ; class symbol) [nM] | IC50 (PI3Kβ; numeric value) [nM] | IC50 ([2]; class symbol) [nM] | IC50 ([2]; numeric value) [nM] | IC50 (ATM; class symbol) [nM] | IC50 (ATM; read-out: ATM HTRF 10 μM ATP IC50, numeric value) [nM] | IC50 (DNA-PK; class symbol) [nM] | IC50 (DNA-PK; read-out: DNA-PK HotSpot 10 μM ATP IC50, numeric value) [nM] | IC50 (DNA-PK; [3]) [nM]
1 | Cc1cc2ncnn2cc1Nc1ncc2c(n1)n(C13CCC(O)(CC1)C3)c(=O)n2C [Compound 1, 9-(4-hydroxybicyclo[2.2.1]heptan-1-yl)-7-methyl-2-((7-methyl-[1,2,4]triazolo[1,5-a]pyridin-6-yl)amino)-7,9-dihydro-8H-purin-8-one] | 100 to 1000 | 128 | 100 to 1000 | 658 | ≥ 1000 | 1830 | 10 to 100 | 88 | < 1 | 0.07 | 
2 | Cc1cc2ncnn2cc1Nc1ncc2c(n1)n([C@H]1C[C@@H]3CC[C@H]1C3)c(=O)n2C [Compound 45, 9-((1S,2S,4R)-bicyclo[2.2.1]heptan-2-yl)-7-methyl-2-((7-methyl-[1,2,4]triazolo[1,5-a]pyridin-6-yl)amino)-7,9-dihydro-8H-purin-8-one] | 100 to 1000 |  | 100 to 1000 |  | ≥ 1000 |  | 10 to 100 |  |  |  | < 1
3 | Cc1cc2ncccc2cc1Nc1ncc2c(n1)n([C@H]1C[C@@H]3CC[C@H]1C3)c(=O)n2C [Compound 44, 9-((1S,2S,4R)-bicyclo[2.2.1]heptan-2-yl)-7-methyl-2-((7-methylquinolin-6-yl)amino)-7,9-dihydro-8H-purin-8-one] | 10 to 100 |  | 100 to 1000 |  | 100 to 1000 |  | 1 to 10 |  |  |  | < 1
4 | COC12CCC(n3c(=O)n(C)c4cnc(Nc5cc6c(cc5C)OCO6)nc43)(CC1)C2 [Compound 7, 9-(4-methoxybicyclo[2.2.1]heptan-1-yl)-7-methyl-2-((6-methylbenzo[d][1,3]dioxol-5-yl)amino)-7,9-dihydro-8H-purin-8-one] | 100 to 1000 |  | ≥ 1000 |  | ≥ 1000 |  | 100 to 1000 |  |  |  | < 1

From patent publication US20250263753A1, “BRIDGED CYCLE-BASED INHIBITORS OF DNA-DEPENDENT PROTEIN KINASE AND COMPOSITIONS AND APPLICATION IN GENE EDITING” (Juno Therapeutics, Inc., priority 2023, published 2025)
